Laboratory results from US6737383B1, “Herbicidal oxadiazolidines” (priority 1999, dated 2004).

Tests used:
pigweed = assay: Test B pre/postemergence pigweed; format: in vivo, Amaranthus retroflexus
How it was run: (§1)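 Response is a visual 0-to-10 score relative to untreated plants, where 0 means no effect and 10 means complete control, taken twelve to sixteen days after application. Treatments went onto soil at planting and onto foliage of 1- to 4-leaf plants, using a surfactant-containing non-phytotoxic solvent.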

soybean = assay: Test B pre/postemergence soybean; format: in vivo, Glycine max
How it was run: as §1

cocklebur = assay: Test B pre/postemergence cocklebur; format: in vivo, Xanthium strumarium
How it was run: as §1

morningglory = assay: Test B pre/postemergence morningglory; format: in vivo, Ipomoea hederacea
How it was run: as §1

[1] = Postemergence, Rate 250 g/ha, scale 0 to 10
[2] = Postemergence, Rate 500 g/ha, scale of 0 to 10 where 0 is no effect and 10 is complete control
[3] = Postemergence, Rate 1000 g/ha, scale 0 to 10 (0 no effect, 10 complete control)
[4] = Preemergence, Rate 125 g/ha, scale of 0 to 10 where 0 is no effect and 10 is complete control
[5] = Preemergence, Rate 250 g/ha, scale 0 to 10, 0 is no effect, 10 is complete control
[6] = Preemergence, Rate 500 g/ha, scale 0 to 10, 0 is no effect, 10 is complete control
[7] = Rate 125 g/ha, Postemergence, scale 0 to 10, 0 is no effect, 10 is complete control
[8] = Rate 1000 g/ha, Preemergence, scale 0 to 10 (0 no effect, 10 complete control)
[9] = Preemergence, Rate 62 g/ha, scale of 0 to 10 where 0 is no effect and 10 is complete control
[10] = Rate 62 g/ha, Postemergence, scale 0 to 10 (0 no effect, 10 complete control)

For CCOP(=O)(Cn1c(=O)on(C(=O)N(c2ccccc2)C(C)C)c1=O)OCC [Compound 447], the “Redroot pigweed plant response rating” value (pigweed; [1]) was 0, the “Redroot pigweed plant response rating” value (pigweed; [2]) was 0 and the “Redroot pigweed plant response rating” value (pigweed; [3]) was 0. The “Plant response rating, Redroot pigweed” value (pigweed; [4]) was 0, the “Redroot pigweed plant response rating” value (pigweed; [5]) was 0 and the “Redroot pigweed plant response rating” value (pigweed; [6]) was 0. For the same compound, the “Redroot pigweed plant response rating” value (pigweed; [7]) was 0, the “Plant response rating, Redroot pigweed” value (pigweed; [8]) was 0 and the “Soybean plant response rating” value (soybean; [1]) was 2. For the same compound, the “Soybean plant response rating” value (soybean; [2]) was 4, the “Soybean plant response rating” value (soybean; [3]) was 6 and the “Plant response rating, Soybean” value (soybean; [4]) was 0. The “Soybean plant response rating” value (soybean; [5]) was 0, the “Soybean plant response rating” value (soybean; [6]) was 0 and the “Soybean plant response rating” value (soybean; [7]) was 1. The “Cocklebur plant response rating” value (cocklebur; [1]) was 0, the “Cocklebur plant response rating” value (cocklebur; [2]) was 0 and the “Cocklebur plant response rating” value (cocklebur; [3]) was 0. The “Plant response rating, Cocklebur” value (cocklebur; [4]) was 0, the “Cocklebur plant response rating” value (cocklebur; [5]) was 0 and the “Cocklebur plant response rating” value (cocklebur; [6]) was 0. The “Cocklebur plant response rating” value (cocklebur; [7]) was 0, the “Plant response rating, Cocklebur” value (cocklebur; [8]) was 0 and the “Morningglory plant response rating” value (morningglory; [1]) was 4. The “Morningglory plant response rating” value (morningglory; [2]) was 7, the “Morningglory plant response rating” value (morningglory; [3]) was 10 and the “Plant response rating, Morningglory” value (morningglory; [4]) was 0. The “Morningglory plant response rating” value (morningglory; [5]) was 0, the “Morningglory plant response rating” value (morningglory; [6]) was 0 and the “Morningglory plant response rating” value (morningglory; [7]) was 2. The “Plant response rating, Morningglory” value (morningglory; [8]) was 2.
With CCc1nc(C)c(C(C)n2c(=O)on(C(=O)N(c3ccc(F)cc3)C(C)C)c2=O)s1 (stereo not shown) [Compound 449] the “Redroot pigweed plant response rating” value (pigweed; [1]) was 2, the “Redroot pigweed plant response rating” value (pigweed; [2]) was 4 and the “Plant response rating, Redroot pigweed” value (pigweed; [9]) was 0. The “Plant response rating, Redroot pigweed” value (pigweed; [4]) was 0, the “Redroot pigweed plant response rating” value (pigweed; [5]) was 0 and the “Redroot pigweed plant response rating” value (pigweed; [6]) was 3. The “Redroot pigweed plant response rating” value (pigweed; [10]) was 0, the “Redroot pigweed plant response rating” value (pigweed; [7]) was 0 and the “Soybean plant response rating” value (soybean; [1]) was 2. For the same compound, the “Soybean plant response rating” value (soybean; [2]) was 2, the “Plant response rating, Soybean” value (soybean; [9]) was 0 and the “Plant response rating, Soybean” value (soybean; [4]) was 0. The “Soybean plant response rating” value (soybean; [5]) was 0, the “Soybean plant response rating” value (soybean; [6]) was 2 and the “Soybean plant response rating” value (soybean; [10]) was 0. The “Soybean plant response rating” value (soybean; [7]) was 1, the “Cocklebur plant response rating” value (cocklebur; [1]) was 2 and the “Cocklebur plant response rating” value (cocklebur; [2]) was 3. For the same compound, the “Plant response rating, Cocklebur” value (cocklebur; [9]) was 0, the “Plant response rating, Cocklebur” value (cocklebur; [4]) was 0 and the “Cocklebur plant response rating” value (cocklebur; [5]) was 0. For the same compound, the “Cocklebur plant response rating” value (cocklebur; [6]) was 0, the “Cocklebur plant response rating” value (cocklebur; [10]) was 0 and the “Cocklebur plant response rating” value (cocklebur; [7]) was 0. For the same compound, the “Morningglory plant response rating” value (morningglory; [1]) was 5, the “Morningglory plant response rating” value (morningglory; [2]) was 5 and the “Plant response rating, Morningglory” value (morningglory; [9]) was 0. For the same compound, the “Plant response rating, Morningglory” value (morningglory; [4]) was 0, the “Morningglory plant response rating” value (morningglory; [5]) was 0 and the “Morningglory plant response rating” value (morningglory; [6]) was 0. For the same compound, the “Morningglory plant response rating” value (morningglory; [10]) was 2 and the “Morningglory plant response rating” value (morningglory; [7]) was 5.
In the case of CC(C)N(C(=O)n1oc(=O)n(CO)c1=O)c1ccc(Cl)cc1 [Compound 457], the “Redroot pigweed plant response rating” value (pigweed; [1]) is reported as 0, the “Plant response rating, Redroot pigweed” value (pigweed; [9]) is reported as 0 and the “Plant response rating, Redroot pigweed” value (pigweed; [4]) is reported as 0. For the same compound, the “Redroot pigweed plant response rating” value (pigweed; [5]) was 0, the “Redroot pigweed plant response rating” value (pigweed; [6]) was 0 and the “Redroot pigweed plant response rating” value (pigweed; [10]) was 0. For the same compound, the “Redroot pigweed plant response rating” value (pigweed; [7]) was 0, the “Soybean plant response rating” value (soybean; [1]) was 1 and the “Plant response rating, Soybean” value (soybean; [9]) was 0. The “Plant response rating, Soybean” value (soybean; [4]) was 0, the “Soybean plant response rating” value (soybean; [5]) was 0 and the “Soybean plant response rating” value (soybean; [6]) was 0. The “Soybean plant response rating” value (soybean; [10]) was 0, the “Soybean plant response rating” value (soybean; [7]) was 0 and the “Cocklebur plant response rating” value (cocklebur; [1]) was 0. For the same compound, the “Cocklebur plant response rating” value (cocklebur; [2]) was 0, the “Plant response rating, Cocklebur” value (cocklebur; [9]) was 0 and the “Plant response rating, Cocklebur” value (cocklebur; [4]) was 0. The “Cocklebur plant response rating” value (cocklebur; [5]) was 0, the “Cocklebur plant response rating” value (cocklebur; [6]) was 0 and the “Cocklebur plant response rating” value (cocklebur; [10]) was 0. For the same compound, the “Cocklebur plant response rating” value (cocklebur; [7]) was 0, the “Morningglory plant response rating” value (morningglory; [1]) was 0 and the “Plant response rating, Morningglory” value (morningglory; [9]) was 0. The “Plant response rating, Morningglory” value (morningglory; [4]) was 0, the “Morningglory plant response rating” value (morningglory; [5]) was 0 and the “Morningglory plant response rating” value (morningglory; [6]) was 0. For the same compound, the “Morningglory plant response rating” value (morningglory; [10]) was 0 and the “Morningglory plant response rating” value (morningglory; [7]) was 0.
CC[Si](C)(C)Cn1c(=O)on(C(=O)N(c2ccc(Cl)cc2)C(C)C)c1=O [Compound 460] was tested, and the “Redroot pigweed plant response rating” value (pigweed; [1]) was 1, the “Plant response rating, Redroot pigweed” value (pigweed; [9]) was 0 and the “Plant response rating, Redroot pigweed” value (pigweed; [4]) was 0. For the same compound, the “Redroot pigweed plant response rating” value (pigweed; [5]) was 0, the “Redroot pigweed plant response rating” value (pigweed; [6]) was 0 and the “Redroot pigweed plant response rating” value (pigweed; [10]) was 0. For the same compound, the “Redroot pigweed plant response rating” value (pigweed; [7]) was 0, the “Soybean plant response rating” value (soybean; [1]) was 4 and the “Plant response rating, Soybean” value (soybean; [9]) was 0. For the same compound, the “Plant response rating, Soybean” value (soybean; [4]) was 0, the “Soybean plant response rating” value (soybean; [5]) was 0 and the “Soybean plant response rating” value (soybean; [6]) was 0. For the same compound, the “Soybean plant response rating” value (soybean; [10]) was 3, the “Soybean plant response rating” value (soybean; [7]) was 3 and the “Cocklebur plant response rating” value (cocklebur; [1]) was 0. The “Cocklebur plant response rating” value (cocklebur; [2]) was 0, the “Plant response rating, Cocklebur” value (cocklebur; [9]) was 0 and the “Plant response rating, Cocklebur” value (cocklebur; [4]) was 0. The “Cocklebur plant response rating” value (cocklebur; [5]) was 0, the “Cocklebur plant response rating” value (cocklebur; [6]) was 0 and the “Cocklebur plant response rating” value (cocklebur; [10]) was 0. The “Cocklebur plant response rating” value (cocklebur; [7]) was 0, the “Morningglory plant response rating” value (morningglory; [1]) was 7 and the “Plant response rating, Morningglory” value (morningglory; [9]) was 0. For the same compound, the “Plant response rating, Morningglory” value (morningglory; [4]) was 0, the “Morningglory plant response rating” value (morningglory; [5]) was 0 and the “Morningglory plant response rating” value (morningglory; [6]) was 0. For the same compound, the “Morningglory plant response rating” value (morningglory; [10]) was 7 and the “Morningglory plant response rating” value (morningglory; [7]) was 7.
